Counter-ions that a name gives are not always drawn. Like-named read-outs stand apart in the source and are kept apart here.
Experiments:
Haemophilus parasuis = experiment: MIC against Haemophilus parasuis isolates; type: cell-based; details: for MIC: Glaesserella parasuis, 3 isolates
Description: (§1) The minimal inhibitory concentration (MIC) of valnemulin hydrochloride against recent isolates of Pasteurelia multocida, Haemophilus pleuropneumoniae and Haemophilus parasuis originating from porcine respiratory material is determined and compared with tiamulin. […] Three of the Pasteurella isolates were toxigenic strains of Pasteurella multocida. For H. pleuropneumoniae and H. parasuis, on the day before testing a single loopful of each of the pure cultures is inoculated into 10 ml of Todd & Hewitt broth (Unipath CM190) containing 1% donor calf serum and 2 mg per ml of nicotinamide adenine dinucleotide (NAD). For P. multocida, […] a single loopful of each of the pure cultures is inoculated into 10 ml of nutrient broth No. 2 (Unipath CM67) containing 1% donor calf serum. Each of the prepared broth cultures are incubated for 18 hours at 37° C. in 10% CO2. […] For each test compound, standard control cultures of Oxford Staphylococcus aureus NCTC 6571 are also set up to validate the results of the MIC tests. In each case, broth cultures set up from the control organisms are identical to those of the organisms under test. Valnemulin is a hydrochloride, tiamulin is used as the hydrogen fumarate. […] Sensitised agar (Oxoid CM409) containing lysed horse blood (Oxoid SR50) is prepared according to the manufacturer's recommendations and adjusted to pH 7.4 it necessary. […] Four replicate plates are prepared from each dilution. […] After inoculation the growth of the organisms is examined initially by eye followed by microscopic examination on a stereo zoom microscope. The MIC value is taken as the lowest concentration of test compound at which no growth can be detected at the point of inoculation on all four plates by microscopic examination.

S. hyodysenteriae [1] = experiment: Challenge trial: prevention of swine dysentery; type: in vivo, pigs; details: for pigs with S. hyodysenteriae isolated: rectal swabs
Description: Two trials were effected where valnemulin fed at various inclusion levels is compared to tiamulin for the prevention of swine dysentery. The severity of disease is assessed by the evidence of clinical disease as determined by clinical scores for body condition, faeces consistency and composition. The excretion of Serpulina hyodysenteriae in faeces, lesions at post-mortem examination, growth rate and feed conversion ratio are also determined.
In the first trial valnemulin hydrochloride fed at 20, 30 and 40 ppm is compared with tiamulin hydrogen fumarate fed at 30 ppm and with unmedicated controls. Five groups of 9 (5 to 6 week old) conventionally reared pigs are used for each treatment group. The pigs are fed unmedicated food for 14 days, then challenged with the standard strain of S. hyodysenteriae (P18A). Challenge is by the oral route on two consecutive days. The medicated feed is introduced on the day after the second challenge. In the second trial a similar procedure is followed except that 4 groups of approximately 9 pigs were used. These are fed valnemulin hydrochloride at 5, 10 and 20 ppm and compared to unmedicated controls. In this trial the pigs used are from an outdoor reared herd and are challenged with a strain of S. hyodysenteriae isolated from an outdoor herd and previously shown to be capable of causing swine dysentery. In both trials the evidence of clinical disease is assessed daily and a clinical score assigned, rectal swabs are taken twice weekly for isolation of S. hyodysenteriae and all pigs are weighed at regular intervals. Food intake is also recorded. A post-mortem examination is carried out 21 days after challenge and the large intestine examined for the presence of lesions. Mucosal scrapings are also taken from 4 areas in the large intestine and cultured for S. hyodysenteriae.

S. hyodysenteriae [2] = experiment: Further challenge trial: treatment of swine dysentery; type: in vivo, pigs
Text: A group of 60 (3.5 to 4 weeks old) conventionally reared pigs are fed unmedicated food for 14 days then challenged by the oral route with the standard strain of S. hyodysenteriae (P18A). When clinical signs of disease are evident, pigs are allocated to six treatment groups of 8 pigs per group and fed antibiotic containing feed for 10 days, then unmedicated food for a further 14 days. Valnemulin hydrochloride is fed at 50, 75, 100 and 150 ppm and compared with tiamulin hydrogen fumarate fed at 100 ppm and with unmedicated controls. Pigs with a range of clinical signs of disease are included in each treatment group. After allocation to the treatment groups the evidence of clinical disease is assessed daily and a clinical score assigned, rectal swabs are taken twice weekly for isolation of S. hyodysenteriae and all pigs are weighed at regular intervals. Food intake is also recorded. A post-mortem examination is carried out 24 days after challenge and the large intestine of each pig examined for the presence of lesions. Mucosal scrapings are also taken from 4 areas in the large intestine and cultured for S. hyodysenteriae.

Mycoplasma gallisepticum = experiment: Challenge study, prevention of Mycoplasma gallisepticum infection; type: in vivo, male broiler chickens; details: for prevention of clinical signs and mortality: tiamulin three doses
Description: Groups of male broiler chickens are infected with a virulent strain of Mycoplasma gallisepticum (MG) and each group medicated respectively with one of the following: valnemulin (concentrations of 0.00312, 0.00625, 0.0125 and 0.025%), tiamulin (0.00625, 0.0125 and 0.025%), and tylosin (0.05%). Infection is effected on day 2 by injection of 0.1 ml of Mycoplasma gallisepticum culture containing approximately 10^6 cfu of viable organisms into each lung (Jordan, F. T. W., The Veterinary Record 127 [1990] 502) and medication is commenced within an hour of infection and continued for three consecutive days. There is also an infected untreated group and an uninfected group.

[3] = tested on: Haemophilus pleuropneumoniae; experiment: MIC against Haemophilus pleuropneumoniae isolates; type: cell-based; details: for MIC: Actinobacillus pleuropneumoniae, 10 isolates
Description: as §1

Lawsonia intracellularis = experiment: Challenge study: porcine proliferative enteropathy; type: in vivo, pigs
[4] = tested on: weakly beta-hemolytic spirochetes; details: WBHS
[5] = tiamulin 100 ppm, treatment period
[6] = tylosin 0.05%, tiamulin, valnemulin all but the lowest dose
[7] = valnemulin 0.0125 and 0.025%, tylosin 0.05%
[8] = first trial, valnemulin 20 and 40 ppm

Structure (SMILES): C=C[C@]1(C)C[C@@H](OC(=O)CSCCN(CC)CC)[C@]2(C)[C@H](C)CC[C@]3(CCC(=O)[C@H]32)[C@@H](C)[C@@H]1O [tiamulin hydrogen fumarate]
- MIC (Haemophilus parasuis; 18 h, read-out: MIC mean): 0.7 µg/mL
- MIC (Haemophilus parasuis; read-out: MIC range): 0.5 to 1 µg/mL
- pigs with S. hyodysenteriae isolated (S. hyodysenteriae [1]; first trial, tiamulin 30 ppm): 2
- isolation of S. hyodysenteriae from mucosal scrapings (S. hyodysenteriae [1]; first trial, tiamulin 30 ppm): isolated from mucosal scrapings taken from all of these affected animals
- post-mortem lesions in pigs with clinical signs (S. hyodysenteriae [1]; first trial, tiamulin 30 ppm): typical lesions of swine dysentery
- post-mortem lesions in pigs without previous clinical signs (S. hyodysenteriae [1]; first trial, tiamulin 30 ppm): one pig
- animals with clinical disease (S. hyodysenteriae [1]; first trial, tiamulin 30 ppm in feed): 2 out of 9
- mean clinical score per pig (S. hyodysenteriae [1]; first trial, tiamulin 30 ppm, control 36): 6
- prevention of swine dysentery in words (S. hyodysenteriae [1]; tiamulin 30 ppm in feed): did not prevent swine dysentery but reduced the incidence of disease
- day by which improvement was seen in surviving pigs (S. hyodysenteriae [2]; tiamulin 100 ppm): ≤ 8 days
- mean clinical score (S. hyodysenteriae [2]; tiamulin 100 ppm): 30
- mortality in words (S. hyodysenteriae [2]; tiamulin 100 ppm): reduced mortality compared to unmedicated controls but did not prevent some deaths
- pigs with swine dysentery in post treatment period (S. hyodysenteriae [2]; tiamulin 100 ppm, last day of trial): one pig
- animals that died or required euthanasia (S. hyodysenteriae [2]; [5]): 3 animals
- daily live weight gain (DLWG) (S. hyodysenteriae [2]; [5]): 0.1
- feed conversion ratio (FCR) (S. hyodysenteriae [2]; [5]): 6.4
- recovery of MG during life or at necropsy (Mycoplasma gallisepticum; tiamulin highest dose (0.025%), tylosin 0.05%): not recovered
- weight gain (Mycoplasma gallisepticum; [6]): next but significantly less (p<0.05)
- prevention of clinical signs and mortality (Mycoplasma gallisepticum; [7]): equally satisfactory
- MIC ([3]; 18 h, read-out: MIC mean): 4.5 µg/mL
- MIC ([3]; read-out: MIC range): 0.125 to 16 µg/mL

Structure (SMILES): C=C[C@]1(C)C[C@@H](OC(=O)CSC(C)(C)CNC(=O)[C@H](N)C(C)C)[C@]2(C)[C@H](C)CC[C@]3(CCC(=O)[C@H]32)[C@@H](C)[C@@H]1O [valnemulin hydrochloride, 14-O-[1-[(R)-2-amino-3-methylbutyrylamino]-2-methylpropan-2-ylthioacetyl]mutilin]
- MIC (Haemophilus parasuis; 18 h, read-out: MIC mean): 0.25 µg/mL
- MIC (Haemophilus parasuis; read-out: MIC range): 0.25 µg/mL
- mean increase in activity compared with tiamulin (Haemophilus parasuis; H. parasuis): three fold
- pigs with S. hyodysenteriae isolated (S. hyodysenteriae [1]; first trial, valnemulin 30 ppm): 2 pigs
- isolation of S. hyodysenteriae (S. hyodysenteriae [1]; [8]): not isolated
- post-mortem lesions (S. hyodysenteriae [1]; [8]): Lesions were not seen
- evidence of disease (S. hyodysenteriae [1]; first trial, valnemulin 20 and 40 ppm in feed): Evidence of disease was not seen
- isolation of S. hyodysenteriae from mucosal scrapings (S. hyodysenteriae [1]; first trial, valnemulin 30 ppm): not isolated from mucosal scrapings
- pigs with post-mortem lesions (S. hyodysenteriae [1]; first trial, valnemulin 30 ppm): One pig
- pigs with clinical disease (S. hyodysenteriae [1]; first trial, valnemulin 30 ppm in feed): 1 pig
- inclusion rate down to which effective in preventing swine dysentery (S. hyodysenteriae [1]; in feed): 10 ppm
- animals affected (S. hyodysenteriae [1]; second trial, 5 ppm): 5 out of 10
- p of mean clinical score vs controls (S. hyodysenteriae [1]; second trial, 5 ppm): < 0.005
- p of numbers affected vs controls (S. hyodysenteriae [1]; second trial, 5 ppm): < 0.05
- p, heavier than controls at end of trial (S. hyodysenteriae [1]; second trial, 5 ppm): 0.05
- other animals with lesions and S. hyodysenteriae in mucosal scrapings (S. hyodysenteriae [1]; second trial, 5 ppm, no clinical signs): 2 animals
- pigs with post-mortem lesions (S. hyodysenteriae [1]; second trial, 5 ppm, of 5 pigs with previous signs, S. hyodysenteriae not isolated): 2
- pigs with S. hyodysenteriae isolated from rectal swabs (S. hyodysenteriae [1]; second trial, 5 ppm, of the 5 animals affected): 2
- mean clinical score (S. hyodysenteriae [1]; second trial, 5 ppm, control 77): 11
- first clinical signs after challenge (S. hyodysenteriae [1]; second trial, 5 ppm, control 5 days): 8 days
- p, heavier than controls at end of trial (S. hyodysenteriae [1]; second trial, 10 and 20 ppm): < 0.05
- clinical signs of disease (S. hyodysenteriae [1]; second trial, 10 or 20 ppm): not seen
- isolation of S. hyodysenteriae (S. hyodysenteriae [1]; second trial, 10 or 20 ppm): not isolated
- post-mortem lesions (S. hyodysenteriae [1]; second trial, 10 or 20 ppm): Lesions were not seen
- prevention of swine dysentery in words (S. hyodysenteriae [1]; valnemulin 5 ppm in feed): did not completely prevent clinical disease or the shedding of spirochaetes
- prevention compared with tiamulin (S. hyodysenteriae [1]; valnemulin 10 ppm in feed): clearly more effective than Tiamulin at 30 ppm
- prevention or treatment of disease in words (Lawsonia intracellularis; low actual doses): prevented or treated the disease in a large proportion of challenged pigs
- pigs with no visible lesions of proliferative enteropathy (Lawsonia intracellularis; prevention group, 25/75 ppm from two days before challenge): 3 of 7
- pigs with no visible lesions of proliferative enteropathy (Lawsonia intracellularis; treatment group, 25/75 ppm from seven days after challenge): 5 of 7
- shedding of S. hyodysenteriae in faeces (S. hyodysenteriae [2]; all levels of valnemulin, after withdrawal of medicated feed): prevented by all levels of valnemulin
- p of clinical scores, valnemulin vs tiamulin (S. hyodysenteriae [2]; days 3 to 10, all valnemulin groups): < 0.001
- survival (S. hyodysenteriae [2]; valnemulin 50, 75, 100, 150 ppm): All pigs treated with valnemulin survived
- recovery from clinical swine dysentery compared to tiamulin (S. hyodysenteriae [2]; valnemulin 50, 75, 100 and 150 ppm): reduction in the number of days that were needed to recover
- pigs with clinical signs in post treatment period (S. hyodysenteriae [2]; valnemulin 50 ppm): one pig
- pigs with clinical swine dysentery at post-mortem (S. hyodysenteriae [2]; valnemulin 50 ppm): 1 pig
- pigs with reddening of the large intestine (S. hyodysenteriae [2]; valnemulin 50 ppm): one other pig
- time to clinical signs after withdrawal of medicated feed (S. hyodysenteriae [2]; valnemulin 50 ppm): 4 days
- post-mortem lesions of swine dysentery (S. hyodysenteriae [2]; valnemulin 75, 100 or 150 ppm): not seen
- pigs with S. hyodysenteriae in mucosal scrapings (S. hyodysenteriae [2]; valnemulin 75 ppm): One pig
- efficacy in words (S. hyodysenteriae [2]; valnemulin 100 ppm): highly effective
- day by which clinical disease was not seen (S. hyodysenteriae [2]; valnemulin, all levels): ≤ 5 days
- weight gain (Mycoplasma gallisepticum; [6]): next but significantly less (p<0.05)
- prevention of MG infection vs reference compounds (Mycoplasma gallisepticum; valnemulin 0.0125 and 0.025%): as effective as the reference compounds
- prevention of clinical signs and mortality (Mycoplasma gallisepticum; [7]): equally satisfactory
- lesions (frequency and severity) (Mycoplasma gallisepticum; valnemulin 0.0125 and 0.025%, tiamulin, tylosin 0.05%): then the two higher doses of valnemulin
- effect on lesions (Mycoplasma gallisepticum; valnemulin 2 lower doses (0.00312, 0.00625%)): less effective
- birds with MG isolated (Mycoplasma gallisepticum; valnemulin highest dose (0.025%)): only one bird
- weight gain (Mycoplasma gallisepticum; valnemulin lowest dose): lowest weight gains
- MIC ([3]; 18 h, read-out: MIC mean): 0.85 µg/mL
- MIC ([3]; read-out: MIC range): 0.125 to 4 µg/mL
- mean increase in activity compared with tiamulin ([3]; H. pleuropneumoniae): five and a half fold
- strains with MIC at the lowest value [4]: 9 out of 10 strains

— patent US6130250A, “Veterinary use of a pleuromutilin derivative” (priority 1996, dated 2000)
